{
  "source": "patent US20210000972A1",
  "about": "“NANOPARTICLES FOR SUSTAINED OPHTHALMIC DRUG DELIVERY AND METHODS OF USE” (2C TECH CORP., priority 2017, published 2021)",
  "origin": "cited, not measured here",
  "note": "Where two headings read alike, the source gives them in different places.",
  "data": [
    {"compound": "C[C@@H]1C[C@H]2[C@@H]3CCC4=CC(=O)C=C[C@]4(C)[C@@]3(F)[C@@H](O)C[C@]2(C)[C@@]1(O)C(=O)CO", "note": "[dexamethasone]", "values": [
      {"measurement": "duration of constant concentration", "setting": "sustained release form (embedded in a lactic co-glycolic copolymer)", "result": "one"}
    ]},
    {"compound": "O=C(O)P(=O)(O)O", "note": "[foscarnet]", "values": [
      {"measurement": "half-life", "setting": "intravitreal", "result": 12, "unit": "h"}
    ]},
    {"compound": "CC1(C)O[C@@H]2C[C@H]3[C@@H]4CCC5=CC(=O)C=C[C@]5(C)[C@@]4(F)[C@@H](O)C[C@]3(C)[C@]2(C(=O)CO)O1", "note": "[triamcinolone acetonide]", "values": [
      {"measurement": "half-life", "setting": "intravitreal suspension, 4 mg", "result": 576, "unit": "h"},
      {"measurement": "time the drug lasted", "setting": "intravitreal suspension, the two doses administered (4 mg and 16 mg)", "result": "4 to 6", "unit": "months"}
    ]},
    {"compound": "Avastin: an antibody used for the treatment of macular edema", "values": [
      {"measurement": "half-life", "setting": "intravitreal antibody", "result": 140, "unit": "h"},
      {"measurement": "time detectable", "setting": "intravitreal antibody", "result": "> 30", "unit": "days"},
      {"measurement": "systemic delivery after intravitreal administration", "setting": "untreated contralateral eye", "result": "found in the untreated contralateral eye"}
    ]}
  ]
}
